Source: patent US20200368247A1, “CENICRIVIROC FOR THE TREATMENT OF FIBROSIS” (Tobira Therapeutics, Inc., priority 2014, published 2020)

Test system: male Sprague-Dawley rats with TAA-induced fibrosis
Assay: Rat model of thioacetamide-induced liver fibrosis and cirrhosis
Format: in vivo
Conditions: 8 weeks
Description: Fibrosis was induced in male Sprague-Dawley rats by intraperitoneal administration of TAA 150 mg/kg 3 times/week for 8 weeks. […] Biochemical, gene expression and histologic evaluations of the liver were conducted.

CCCCOCCOc1ccc(-c2ccc3c(c2)/C=C(/C(=O)Nc2ccc([S@@+]([O-])Cc4cncn4CCC)cc2)CCCN3CC(C)C)cc1 [CVC, (S)-8-[4-(2-Butoxyethoxy)phenyl]-1-isobutyl-N-(4-{[(1-propyl-1H-imidazol-5-yl)methyl]sulfinyl}phenyl)-1,2,3,4-tetrahydro-1-benzazocine-5-carboxamide]
reduction of fibrosis by collagen morphometry (Group 1a, 30 mg/kg/day concurrently with TAA): 49%
reduction of fibrosis by collagen morphometry (Group 1b, 100 mg/kg/day concurrently with TAA): 38%
